# In patent US8367710B2, “Bicyclo-substituted pyrazolon azo derivatives, preparation process and pharmaceutical use thereof” (Jiangsu Hengrui Medicine Co. Ltd., priority 2008, dated 2013):
# Experiments:
# human TPO receptor = biological target: T1, human TPO receptor (Homo sapiens, UniProt P40238); experiment: pro-proliferation effect on BAF3-TPOR cell (CCK-8); type: cell-based, mouse; conditions: BAF3-TPOR cells, proliferation relative to rhTPO positive control
# T1 sequence (P40238 26-635): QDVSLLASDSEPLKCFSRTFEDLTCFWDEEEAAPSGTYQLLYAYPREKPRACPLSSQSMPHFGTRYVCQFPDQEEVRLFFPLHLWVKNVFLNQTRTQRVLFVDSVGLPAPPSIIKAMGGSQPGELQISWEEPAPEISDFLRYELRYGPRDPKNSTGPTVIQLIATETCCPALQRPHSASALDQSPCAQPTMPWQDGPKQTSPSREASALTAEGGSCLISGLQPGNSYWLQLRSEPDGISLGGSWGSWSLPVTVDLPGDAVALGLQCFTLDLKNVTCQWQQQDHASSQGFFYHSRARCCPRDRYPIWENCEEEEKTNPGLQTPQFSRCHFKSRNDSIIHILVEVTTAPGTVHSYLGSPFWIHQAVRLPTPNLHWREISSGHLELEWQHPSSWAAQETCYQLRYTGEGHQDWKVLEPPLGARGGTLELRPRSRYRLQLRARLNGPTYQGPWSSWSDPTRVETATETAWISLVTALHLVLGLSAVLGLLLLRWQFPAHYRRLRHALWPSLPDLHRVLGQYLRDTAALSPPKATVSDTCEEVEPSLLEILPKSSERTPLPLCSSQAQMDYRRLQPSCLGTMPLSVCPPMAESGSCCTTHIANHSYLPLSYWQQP
# Procedure: The sequence of primers which contains multi-sites mutation was designed as follows: […]
# The E. coli DH5α competent cell was transformed with mutated plasmid, and positive colonies were picked up through ampicillin selection.
# (2) BAF3-TPOR stable transfected cell line: the following method was used to construct the BaF3 cell which stably over-expressed functional human TPO receptor. […] The stable transfected cells BAF3-TPOR were selected with G418 (Gibco, US), then incubated with RPMI1640 medium plus 10% FBS (Gibco, US), […] G418, 5 ng/mL, rmIL-3 (Chemicon, US).
# (1) Washing cells by centrifugation: a suitable amount of cell suspension was centrifuged at 1000 rpm for 5 minutes, and the supernatant was discarded. 10 mL of cell culture media without containing IL-3 was added. Then the resulting cell suspension was centrifuged at 1000 rpm for 5 minutes, and the supernatant was discarded.
# (2) 1 mL of cell culture media without containing IL-3 was added to beat upon them to equality, and the number of a suitable amount of cell suspension was counted after dilution.
# (3) According to the result of the cell counting, a cell suspension in a concentration of 100,000 cell/mL was prepared.
# (4) 100 μL of cell suspension was transferred to each well of 96-well culture plate, and there were 3 parallel wells, that is, there were a blank control group (B), a negative control group (N), a positive control group of TPO (P) and a test compound group (S).
# (5) The test compound was dissolved in DMSO to prepare a 10 mM stock solution, and then the solution was diluted with RPMI 1640 medium into a series of test samples at different concentration: 30 μM, 10 μM, 3 μM, 1 μM, 0.3 μM, 0.1 μM, 0.03 μM, 0.01 μM, 0.003 μM, 0.001 μM.
# (6) 10 μL of test compound solution was transferred to each well respectively; 1 μL of rhTPO (10 μg/mL) was added to positive control well.
# (7) The plates were incubated in an incubator at 5% CO2 and 37° C. for 24 hours.
# (9) OD value was detected at 450 nm by VICTOR3 (Perkin Elmer 1420-120) plate reader.
# (1) The proliferation rate was calculated as follows: Rate=[(S−B)/(P−B)]*100%
# S: OD value of wells which contains test compound.
# B: OD value of blank control wells
# P: OD value of positive control wells
# (2) The EC50 value was calculated by Origin 7.0 software.
# [1] = Pharmacokinetics assay in rats after intragastric administration; type: in vivo; conditions: both sexes, Sprague-Dawley, rat, plasma, po, SD rats, 5 mg/Kg; for Vd/F: read-out: Apparent Distribution Volume Vz/F; for CL/F: read-out: Clearance CL/F (converted); for AUC: read-out: Curve Area AUC; for half-life: read-out: Half-Life t½ (converted); for MRT: read-out: Mean Residence Time MRT; for Cmax: read-out: Plasma Conc. Cmax
# Procedure: Test Example 1: Pharmacokinetics assay of the compounds of the present disclosure
# The pharmacokinetics of the compounds of the present disclosure was studied and evaluated in rats.
# The test compound was diluted with 1% sodium carboxymethyl cellulose to 0.5 mg/mL (calculated as the free acid form) of suspension before use.
# 24 healthy adult SD rats, male and female in half, were divided into […]. After an overnight fast, the rats were administered intragastrically at a dose of 5.0 mg/kg (calculated as the free acid form), at a volume of 10 mL/kg.
# 24 healthy adult SD rats, male and female in half, were administered intragastrically at a dose of 5.0 mg/kg after an overnight fast. Blood samples (0.2 mL) were taken from eye socket at pre administration and at 0.5, 1.0, 2.0, 3.0, 4.0, 5.0, 6.0, 8.0, 11.0, 14.0, 24.0, 36.0 and 48.0 hours post administration, which were stored in heparinized tubes and centrifuged for 10 minutes at 3,500 rpm. The plasma samples were stored at −20° C. until analysis.
# 50 μL of rat plasma, obtained at various time points after administration, 20 μL of internal standard solution and 20 μL of a solvent mixture of methanol and water (80:20, v/v) were mixed well, and then 150 μL of methanol was added to result in protein precipitation. Then the mixture was mixed for 1 minute using a vortexer and centrifuged for 10 minutes at 13,000 rpm. 20 μL of the supernatant was analyzed by LC/MS/MS.
# 50 μL of blank plasma was spiked with a series of standard solutions to produce final concentrations of 1.0, 5.0, 25.0, 50.0, 100.0, 250.0, 500.0 ng/mL, followed by addition of 20 μL of internal standard solution, which was treated according to plasma sample pretreatment protocol. A typical calibration curve equation was obtained with plasma concentration as the abscissa and the chromatographic peak area ratio of sample to internal standard as the ordinate, using weighted least squares method (w=1/x^2) for linear regression.
# The compartmental model of pharmacokinetics was fitted for the test compounds and the major pharmacokinetic parameters were calculated in which Cmax and tmax were the actually measured values.
Structure (SMILES),EC50 (human TPO receptor) [nM],other results
"CC1=NN(c2ccc3c(c2)CCCC3)C(=O)/C1=N\Nc1cc(C)cc(-c2ccc(C(=O)O)o2)c1O [Example 50, 5-(2-Hydroxy-5-methyl-3-{N′-[3-methyl-5-oxo-1-(5,6,7,8-tetrahydro-naphthalen-2-yl)-1,5-dihydro-pyrazol-4-ylidene]-hydrazino}-phenyl)-furan-2-carboxylic acid]",126,
"CC1=NN(c2ccc3c(c2)CCCC3)C(=O)/C1=N\Nc1cccc(-c2ccc(C(=O)O)o2)c1O [Example 15, 5-(2-Hydroxy-3-{N′-[3-methyl-5-oxo-1-(5,6,7,8-tetrahydro-naphthalen-2-yl)-1,5-dihydro-pyrazol-4-ylidene]-hydrazino}-phenyl)-furan-2-carboxylic acid]",,Vd/F [1]: 1.36 ± 0.7 L/kg; CL/F [1]: 4.67 mL/min/kg; AUC [1]: 23800 ± 17300 ng·h/mL; half-life [1]: 3.47 ± 0.79 h; MRT [1]: 4.09 ± 0.99 h; Cmax [1]: 6630 ± 3780 ng/mL
"CC1=NN(c2ccc3c(c2)CCCC3)C(=O)/C1=N\Nc1cc(C)cc(-c2cccc(C(=O)O)c2)c1O [Example 11, 2′-Hydroxy-5′-methyl-3′-{N′-[3-methyl-5-oxo-1-(5,6,7,8-tetrahydro-naphthalen-2-yl)-1,5-dihydro-pyrazol-4-ylidene]-hydrazino}-biphenyl-3-carboxylic acid]",257,
"CC1=NN(c2ccc3c(c2)CCC3)C(=O)/C1=N\Nc1cc(C)cc(-c2ccc(C(=O)O)o2)c1O [Example 46, 5-{2-Hydroxy-3-[N′-(1-indan-5-yl-3-methyl-5-oxo-1,5-dihydro-pyrazol-4-ylidene)-hydrazino]-5-methyl-phenyl}-furan-2-carboxylic acid]",56,
"CC1=NN(c2ccc3c(c2)C(C)(C)CC3)C(=O)/C1=N\Nc1cc(C)cc(-c2cccc(C(=O)O)c2)c1O [Example 16, 3′-{N′-[1-(3,3-Dimethyl-indan-5-yl)-3-methyl-5-oxo-1,5-dihydro-pyrazol-4-ylidene]-hydrazino}-2′-hydroxy-5′-methyl-biphenyl-3-carboxylic acid]",160,
"CC1=NN(c2ccc3c(c2)CCO3)C(=O)/C1=N\Nc1cccc(-c2cccc(C(=O)O)c2)c1O [Example 7, 3′-{N′-[1-(2,3-dihydro-benzofuran-5-yl)-3-methyl-5-oxo-1,5-dihydro-pyrazol-4-ylidene]-hydrazino}-2′-hydroxy-biphenyl-3-carboxylic acid]",265,
"CC1=NN(c2ccc3c(c2)C(C)(C)CC3(C)C)C(=O)/C1=N\Nc1cc(C)cc(-c2cccc(C(=O)O)c2)c1O [Example 20, 2′-Hydroxy-5′-methyl-3′-{N′-[3-methyl-5-oxo-1-(1,1,3,3-tetramethyl-indan-5-yl)-1,5-dihydro-pyrazol-4-ylidene]-hydrazino}-biphenyl-3-carboxylic acid]",89,
"CC1=NN(c2ccc3c(c2)C(C)CC3)C(=O)/C1=N\Nc1cccc(-c2ccc(C(=O)O)o2)c1O (stereo not shown) [Example 44, 5-(2-Hydroxy-3-{N′-[3-methyl-1-(3-methyl-indan-5-yl)-5-oxo-1,5-dihydro-pyrazol-4-ylidene]-hydrazino}-phenyl)-furan-2-carboxylic acid]",50,
"CC1=NN(c2ccc3c(c2)CCC3)C(=O)/C1=N\Nc1cccc(-c2cccc(C(=O)O)c2)c1O [Example 1, 2′-Hydroxy-3′-[N′-(1-indan-5-yl-3-methyl-5-oxo-1,5-dihydro-pyrazol-4-ylidene)-hydrazino]-biphenyl-3-carboxylic acid]",,Vd/F [1]: 0.35 ± 0.18 L/kg; CL/F [1]: 0.817 mL/min/kg; AUC [1]: 132000 ± 47000 ng·h/mL; half-life [1]: 5.39 ± 0.94 h; MRT [1]: 4.96 ± 1.16 h; Cmax [1]: 29000 ± 11400 ng/mL

# Second part, led by results:
EC50 (human TPO receptor) [nM],Structure (SMILES),other results
133,"COC(=O)c1ccc(-c2cccc(N/N=C3\C(=O)N(c4ccc5c(c4)CCCC5)N=C3C)c2O)o1 [Example 54, 5-(2-Hydroxy-3-{N′-[3-methyl-5-oxo-1-(5,6,7,8-tetrahydro-naphthalen-2-yl)-1,5-dihydro-pyrazol-4-ylidene]-hydrazino}-phenyl)-furan-2-carboxylic acid methyl ester]",
55,"CC1=NN(c2ccc3c(c2)CCCC3)C(=O)/C1=N\Nc1cccc(-c2csc(C(=O)O)c2)c1O [Example 51, 4-(2-Hydroxy-3-{N′-[3-methyl-5-oxo-1-(5,6,7,8-tetrahydro-naphthalen-2-yl)-1,5-dihydro-pyrazol-4-ylidene]-hydrazino}-phenyl)-thiophene-2-carboxylic acid]",
27,"CC1=NN(c2ccc3c(c2)CCC3)C(=O)/C1=N\Nc1cccc(-c2coc(C(=O)O)c2)c1O [Example 31, 4-{2-Hydroxy-3-[N′-(1-indan-5-yl-3-methyl-5-oxo-1,5-dihydro-pyrazol-4-ylidene)-hydrazino]-phenyl}-furan-2-carboxylic acid]",
354,"CC1=NN(c2ccc3c(c2)CC3)C(=O)/C1=N\Nc1cccc(-c2cccc(C(=O)O)c2)c1O [Example 5, 3′-[N′-(1-Bicyclo[4.2.0]octa-1(6),2,4-trien-3-yl-3-methyl-5-oxo-1,5-dihydro-pyrazol-4-ylidene)-hydrazino]-2′-hydroxy-biphenyl-3-carboxylic acid]",
90,"CC1=NN(c2ccc3c(c2)CC3)C(=O)/C1=N\Nc1cccc(-c2ccc(C(=O)O)s2)c1O [Example 37, 5-{3-[N′-(1-Bicyclo[4.2.0]octa-1(6),2,4-trien-3-yl-3-methyl-5-oxo-1,5-dihydro-pyrazol-4-ylidene)-hydrazino]-2-hydroxy-phenyl}-thiophene-2-carboxylic acid]",
71,"COC(=O)c1ccc(-c2cccc(N/N=C3\C(=O)N(c4ccc5c(c4)CCC5)N=C3C)c2O)o1 [Example 55, 5-{2-hydroxy-3-[N′-(1-indan-5-yl-3-methyl-5-oxo-1,5-dihydro-pyrazol-4-ylidene)-hydrazino]-phenyl}-furan-2-carboxylic acid methyl ester]",
